# In EP3720857B1, “2-OXO-5H-CHROMENO[4,3-B]PYRIDINES FOR USE IN THE TREATMENT OF HEPATITIS B” (Galapagos NV, priority 2017, dated 2019):
# System: hepatitis virus B (HBV) infection
# Experiment: iCell hepatocytes assay, delayed assay (compounds added three days after HBV infection)
# Assay type: cell-based
# Details: for EC50: Hepatitis B virus, Hepatocyte, HBs ELISA
# Protocol: The principle of the iCell hepatocyte 2.0 96 well assay is to evaluate the inhibitory effect of a test compound on hepatitis virus B (HBV) infection. In this assays the HBV core antigen (HBcAg) and/or extracellular antigen (HBeAg) and/or surface antigen (HBsAg) are used as a marker for HBV infection. Nuclei count may be used as an indication for compound toxicity.
# In the standard assay set-up HBV infection and compound addition are performed on the same day, in the delayed assay the compounds are added three days after HBV infection. iCell hepatocytes 2.0 are human hepatocytes derived from induced pluripotent stem cells (iPSc) purchased from Cellular Dynamics international (CDI, R1027).
# At day 0, iCell hepatocytes 2.0 (CDI, R1027) are thawed and seeded in collagen I coated 96well plates at 112 000c/well (100µL) in plating medium (RPMI supplemented with B27 supplement, 20 ng/mL recombinant human oncostatin M (OSM), 25µg/mL gentamicin, 0.1µM Dexamethasone and iCell medium supplement provided by CDI). Plates are incubated at 37°C, 5% CO2 and daily refreshed with plating medium for the following four days.
# On day 5 and 6, plates are refreshed with 100µL maintenance medium (RPMI supplemented with B27 supplement, 25µg/mL gentamicin, 0.1µM Dexamethasone, and iCell medium supplement provided by CDI) and incubated at 37°C, 5% CO2 until the following day.
# On day 7 (day of infection), the maintenance medium is removed from the assay plates and cells are infected with 50 µL of HBV mix (HBV virus, 4% PEG, 0% or 2% DMSO in maintenance medium). The assay plates were incubated overnight at 37°C, 5% CO2.
# At day 1 post infection (day8), 50µL of HBV mix is removed from the assay plates and refreshed with 100 µL of maintenance medium. The assay plates are incubated at 37°C, 5% CO2 for three days.
# At day 4 post infection (day 11) and day 7 post infection (day14), the supernatant is removed and 100 µL of compound series diluted 1/500 in maintenance medium is added to the assay plates (8 point serial dilution using 1/3 dilution steps in 100% DMSO or 8 point serial dilution using ¼ dilution steps, normalized for 0.2% DMSO. The assay plates were incubated at 37°C, 5% CO2 for three days.
# At day 10 post infection (day 17), 100µL of supernatant is harvested and frozen to -20°C. The cells are fixed with 50 µL of 3.7% formaldehyde and incubated for 30 min at room temperature. After fixation, cells are washed four times with phosphate buffer saline (PBS) with the plate washer (Select 405, microplate washer, Biotek) and subjected to HBc staining. harvested supernatant is used for HBe and/or HBs ELISA.
# The assay plates are blocked with blocking buffer (2% FBS, 3% BSA, 0.2% TritonX100 in PBS) for 1 h at room temperature.
# After blocking, the assay plates are tapped manually and incubated with 50 µL diluted primary antibody (1/700 Rabbit-anti-HBc Ag, Dako, B0586 or 1/350 Rabbit-anti-HBc Ag, Invitrogen, PA516368) in blocking buffer and incubated for 90 min at room temperature.
# After 4 washes of PBST (1XPBS + 0.05% Tween) with the plate washer, the assay plates are incubated with 100 µL of secondary antibody (Donkey-anti-rabbit Alexa 488, Lifetechnologies, A21206) 1/500 diluted in blocking buffer and incubated for 60 min at room temperature in the dark, then washed 4 times with PBST on the plate washer and incubated with 100µL of DAPI (Sigma D9542, stock 5mg/mL) 1/10000 diluted in PBS for 15-30 min at room temperature in the dark.
# Finally, the assay plates are read out on a InCell Analyzer 2200 (GE Healthcare). […]
# After blocking, 30 µL of sample and HBe Ag standard (recombinant hepatitis B virus E antigen protein, 4mg/mL, Abcam, ab91273) are added to the plate. The HBe Ag standard is 1/3 diluted in blocking buffer starting from 1.25µg/mL. A vehicle control is also included. The plate is incubated for 30 min at room temperature.
# After sample incubation, the plates are washed 4 times with PBST on a platewasher followed by 2 washed of PBS. […]
SMILES,Delayed assay HBs ELISA % inhibition,EC50
"COCCCOc1cc2c(cc1F)-c1c(cc(C(=O)O)c(=O)n1C1CC1)C(C(C)C)O2 (stereo not drawn) [Compound 1, 1-cyclopropyl-9-fluoro-5-isopropyl-8-(3-methoxypropoxy)-2-oxo-5H-chromeno[4,3-b]pyridine-3-carboxylic acid]",++ (50-75%),0.001 to 20 nM
"COCCCOc1cc2c(cc1Cl)-c1c(cc(C(=O)O)c(=O)n1C1CC1)CO2 [Compound 6, 9-chloro-1-cyclopropyl-8-(3-methoxypropoxy) -2-oxo-5H-chromeno[4,3-b]pyridine-3-carboxylic acid]",++ (50-75%),22 to 50 nM
"CCC1Oc2cc(OCCCOC)c(F)cc2-c2c1cc(C(=O)O)c(=O)n2C1CC1 (stereo not drawn) [Compound 16, 1-cyclopropyl-5-ethyl-9-fluoro-8-(3-methoxypropoxy) -2-oxo-5H-chromeno[4,3-b]pyridine-3-carboxylic acid]",++ (50-75%),22 to 50 nM
"COCCCOc1cc2c(cc1Cl)-c1c(cc(C(=O)O)c(=O)n1C1CC1)C(C(C)(C)COC)O2 (stereo not drawn) [Compound 19, 9-chloro-1-cyclopropyl-5-(2-methoxy-1,1-dimethyl-ethyl)-8-(3-methoxypropoxy) -2-oxo-5H-chromeno[4,3-b]pyridine-3-carboxylic acid]",++ (50-75%),22 to 50 nM
"COCCCOc1cc2c(cc1F)-c1c(cc(C(=O)O)c(=O)n1C1CC1)[C@H](C(C)C)O2 [Compound 44, (5S)-1-cyclopropyl-9-fluoro-5-isopropyl-8-(3-methoxypropoxy)-2-oxo-5H-chromeno[4,3-b]pyridine-3-carboxylic acid]",++ (50-75%),> 50 nM
"COCCCOc1cc2c(cc1Cl)-c1c(cc(C(=O)O)c(=O)n1C1CC1)[C@H](C1(C)COC1)O2 [Compound 46, (5R)-9-chloro-1-cyclopropyl-8-(3-methoxypropoxy)-5-(3-methyloxetan-3-yl)-2-oxo-5H-chromeno[4,3-b]pyridine-3-carboxylic acid]",++ (50-75%),0.001 to 20 nM
